According to paper PMC10895799, “Differential contribution of THIK-1 K^+ channels and P2X7 receptors to ATP-mediated neuroinflammation by human microglia” (Journal of Neuroinflammation, 2024):

Assays:
Type in all cases: cell-based
THIK-1 (hKCNK13) [1] = target: T1, THIK-1 (hKCNK13) (Homo sapiens, UniProt Q9HB14); assay: radioligand displacement on HEK-hKCNK13 membranes; IC50 from FLIPR thallium flux in HEK293; QPatch IC50 […]
T1 construct: gene KCNK13
T1 sequence (Q9HB14 1-408): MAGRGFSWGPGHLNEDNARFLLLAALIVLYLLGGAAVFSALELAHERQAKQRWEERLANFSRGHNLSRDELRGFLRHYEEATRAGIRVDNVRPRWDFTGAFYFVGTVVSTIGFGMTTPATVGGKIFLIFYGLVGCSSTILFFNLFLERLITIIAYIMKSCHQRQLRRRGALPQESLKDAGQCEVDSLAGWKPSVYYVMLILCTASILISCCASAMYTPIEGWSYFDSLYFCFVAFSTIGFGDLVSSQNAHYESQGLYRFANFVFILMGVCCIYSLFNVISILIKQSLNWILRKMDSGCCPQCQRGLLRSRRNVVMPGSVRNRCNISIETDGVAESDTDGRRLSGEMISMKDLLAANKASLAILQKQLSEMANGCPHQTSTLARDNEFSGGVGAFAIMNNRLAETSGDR

THIK-1 (mKCNK13) = target: T2, THIK-1 (mKCNK13) (Mus musculus, UniProt Q8R1P5); assay: FLIPR thallium flux in HEK293 cells; patch clamp of WT and THIK-1 KO microglia
T2 construct: gene Kcnk13
T2 sequence (Q8R1P5 1-405): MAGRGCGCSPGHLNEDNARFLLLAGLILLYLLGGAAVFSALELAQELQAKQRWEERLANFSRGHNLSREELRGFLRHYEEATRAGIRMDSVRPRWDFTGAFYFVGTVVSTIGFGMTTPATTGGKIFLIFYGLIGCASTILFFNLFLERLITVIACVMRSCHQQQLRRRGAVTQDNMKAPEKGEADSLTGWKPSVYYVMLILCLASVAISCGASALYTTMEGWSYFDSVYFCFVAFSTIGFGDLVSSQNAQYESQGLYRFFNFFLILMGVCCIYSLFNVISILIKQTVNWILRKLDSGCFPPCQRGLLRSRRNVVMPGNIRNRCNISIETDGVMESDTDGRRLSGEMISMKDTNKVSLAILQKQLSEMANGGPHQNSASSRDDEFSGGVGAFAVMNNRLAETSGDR

THIK-1 (hKCNK13) [2] = target: T1, THIK-1 (hKCNK13); assay: reference blocker in FLIPR thallium flux and QPatch assays of hTHIK-1 HEK cells

Row | SMILES | IC50 (THIK-1 (hKCNK13) [1]) [nM] | IC50 (THIK-1 (mKCNK13)) [nM] | reference blocker in FLIPR thallium flux and QPatch assays of hTHIK-1 HEK cells (THIK-1 (hKCNK13) [2])
1 | COc1ncc(Cl)cc1C(=O)N(C)Cc1cccc(F)c1 [C100814] | 71 | 61 | 
2 | CCCCC[N+](CCCCC)(CCCCC)CCCCC [tetrapentylammonium] |  |  | normalised to controls using the nonselective THIK-1 antagonist tetrapentylammonium (TPA)
